Data as given in patent US20090012156A1, “Composition comprising polyphenol” (Conopco, Inc. d/b/a Unilever, priority 2007, published 2009).

Tested on: 2nd order mesenteric artery side branches of Spontaneously Hypertensive Rats (SHR)
Test: Reactivity of isolated arteries: dilator effect during contraction induced by 40 mmol/L K+
Parameters: species or system rat
Procedure: Segments of 2nd order mesenteric artery side branches were isolated from 14 weeks old male Spontaneously Hypertensive Rats (SHR). Two stainless-steel wires (diameter 40 μm) were inserted in the lumen of the arterial segments, which were then mounted in organ chambers between an isometric force transducer and a displacement device (Danish Myotechnology by J. P. Trading, Denmark). The organ chambers were filled with Krebs-Ringer bicarbonate solution which was maintained at 37° C. and continuously aerated with 95% O2 and 5% CO2. Before the actual experiments started, arterial segments were stretched to their individual optimal lumen diameter for mechanical performance, i.e. the diameter at which maximal contractile responses to noradrenaline (10 μmol/L) were obtained. In each experiment four second order mesenteric resistance arterial segments from one animal were mounted in individual organ chambers and studied in parallel. […]
For the analysis of the acute effects of the mixtures on K+-induced contraction, increasing concentrations of the mixtures (0.1-100 umol/L) were administered on top of the stable contractions and were left in contact with the arterial segments for 5-7 min to make sure that either no effect or a stable effect was reached. […] In this way, the effects of different exposure times to the mixtures (7, 30 and 90 min) on K+-induced contraction, could be evaluated. […]
Active wall tension (AWT) was calculated by subtracting the resting wall tension.
All contractile responses (AWT in the presence of stimuli, solvent and mixes of ingredients) were next expressed as a percentage of the contractile response (AWT) to 10 uM noradrenaline at the end of the normalisation period, i.e. before exposure of the arterial segments to solvent or mixes of ingredients.
Effects of increasing concentrations of the solvent and of the mixes (0.1 to 100 umol/L) during contractile responses to 40 mmol/L K+, were calculated as % change of the level of pre-contraction. […]

With `COc1cc(-c2oc3cc(O)cc(O)c3c(=O)c2O)ccc1O` [isorhamnetin, 3′methoxy-3,4,5,7-tetrahydroxyflavone] the EC50 (Rattus norvegicus, isolated SHR mesenteric resistance arteries pre-contracted with 40 mmol/L K+, effect worked out by comparing mixtures (Plackett-Burman design), corrected for solvent, read-out: EC50 of dilation of the arteries) was 3.1 µM, the maximum dilatation (at 100 micromolar of isorhamnetin, isolated SHR mesenteric arteries pre-contracted with 40 mmol/L K+) was 94% and the “influence on the dilation of the arteries” value (at a low concentration, isolated SHR mesenteric arteries, K+-induced contraction) was “significant influence on the dilation of the arteries”.
